Source: ChEMBL document CHEMBL1909046, “DrugMatrix in vitro pharmacology data”

Columns and labels:
[1] = target: Matrix metalloproteinase-9 (Homo sapiens, UniProt P14780); assay: biochemical; assay type: cell-based;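 note: inhibition of isolated MMP-9 enzyme activity toward a synthetic peptide substrate, from the DrugMatrix protease screening panel; in other assays of this panel Not Active means under 50% inhibition at 10 µM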
[2] = target: T1, Alpha-1B adrenergic receptor (Rattus norvegicus, UniProt P15823); assay: DRUGMATRIX: Alpha-1B adrenergic receptor radioligand binding (ligand: prazosin); assay type: cell membranes, Wistar, Liver, Membrane; conditions: Not Active = under 50% inhibition at 10 µM
T1 sequence (P15823 whole entry): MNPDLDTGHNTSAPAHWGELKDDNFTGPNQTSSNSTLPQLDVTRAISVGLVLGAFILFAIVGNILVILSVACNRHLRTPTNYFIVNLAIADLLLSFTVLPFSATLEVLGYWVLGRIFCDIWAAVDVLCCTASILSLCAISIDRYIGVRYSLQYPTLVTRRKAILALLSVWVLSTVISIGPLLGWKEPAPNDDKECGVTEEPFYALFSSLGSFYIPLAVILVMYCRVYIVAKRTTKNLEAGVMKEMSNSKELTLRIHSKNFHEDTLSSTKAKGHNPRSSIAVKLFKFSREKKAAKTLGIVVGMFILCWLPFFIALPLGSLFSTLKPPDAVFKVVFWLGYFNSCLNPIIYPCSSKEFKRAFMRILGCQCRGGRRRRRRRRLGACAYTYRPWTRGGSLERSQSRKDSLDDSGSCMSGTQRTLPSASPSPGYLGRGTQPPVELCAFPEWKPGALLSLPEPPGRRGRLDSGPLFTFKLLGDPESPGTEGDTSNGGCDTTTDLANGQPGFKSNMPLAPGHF

[3] = DRUGMATRIX: Atrial Natriuretic Factor (ANF) radioligand binding (ligand: [125I] ANF (rat)); assay type: cell membranes, Cavia porcellus, Dunkin-Hartley, Adrenal gland, Membrane; conditions: Not Active = under 50% inhibition at 10 µM
[4] = target: Beta-1 adrenergic receptor (Homo sapiens, UniProt P08588); assay: DRUGMATRIX: Adrenergic beta1 radioligand binding (ligand: [125I] Cyanopindolol); assay type: cell membranes, CHO-K1, Membrane; conditions: cho-k1; Not Active = under 50% inhibition at 10 µM
Sequence of Beta-1 adrenergic receptor (P08588 whole entry): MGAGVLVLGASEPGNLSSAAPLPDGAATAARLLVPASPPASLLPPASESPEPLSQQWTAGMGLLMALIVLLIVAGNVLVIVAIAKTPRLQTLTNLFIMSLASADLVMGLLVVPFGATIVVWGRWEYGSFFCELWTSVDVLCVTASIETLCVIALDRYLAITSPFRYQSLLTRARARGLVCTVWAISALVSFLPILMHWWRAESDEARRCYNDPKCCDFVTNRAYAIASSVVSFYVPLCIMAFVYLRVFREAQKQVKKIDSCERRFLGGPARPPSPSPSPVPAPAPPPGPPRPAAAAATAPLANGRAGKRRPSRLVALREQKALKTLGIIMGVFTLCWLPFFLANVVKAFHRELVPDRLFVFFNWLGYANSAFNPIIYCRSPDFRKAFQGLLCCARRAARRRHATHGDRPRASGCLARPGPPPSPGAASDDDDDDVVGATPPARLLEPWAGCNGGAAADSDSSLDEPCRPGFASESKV

Histamine H2 receptor = Histamine H2 receptor (Homo sapiens, UniProt P25021); assay type: cell membranes, CHO-K1, Membrane; conditions: cho-k1; note: in other assays of this panel Not Active means under 50% inhibition at 10 µM
Sequence of Histamine H2 receptor (P25021 whole entry): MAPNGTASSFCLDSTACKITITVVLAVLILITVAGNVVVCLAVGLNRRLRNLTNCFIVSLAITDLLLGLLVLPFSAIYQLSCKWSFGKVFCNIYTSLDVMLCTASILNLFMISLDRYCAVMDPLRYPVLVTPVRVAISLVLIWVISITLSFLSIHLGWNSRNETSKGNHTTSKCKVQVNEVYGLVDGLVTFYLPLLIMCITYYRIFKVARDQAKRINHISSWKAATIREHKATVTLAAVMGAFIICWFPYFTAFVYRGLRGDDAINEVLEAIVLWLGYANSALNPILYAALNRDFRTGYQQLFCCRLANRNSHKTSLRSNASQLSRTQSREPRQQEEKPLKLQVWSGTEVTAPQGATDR

D(3) dopamine receptor = D(3) dopamine receptor (Homo sapiens, UniProt P35462); assay: DRUGMATRIX: Dopamine D3 radioligand binding (ligand: [3H] Spiperone); assay type: cell membranes, CHO, Membrane; conditions: cho
Sequence of D(3) dopamine receptor (P35462 whole entry): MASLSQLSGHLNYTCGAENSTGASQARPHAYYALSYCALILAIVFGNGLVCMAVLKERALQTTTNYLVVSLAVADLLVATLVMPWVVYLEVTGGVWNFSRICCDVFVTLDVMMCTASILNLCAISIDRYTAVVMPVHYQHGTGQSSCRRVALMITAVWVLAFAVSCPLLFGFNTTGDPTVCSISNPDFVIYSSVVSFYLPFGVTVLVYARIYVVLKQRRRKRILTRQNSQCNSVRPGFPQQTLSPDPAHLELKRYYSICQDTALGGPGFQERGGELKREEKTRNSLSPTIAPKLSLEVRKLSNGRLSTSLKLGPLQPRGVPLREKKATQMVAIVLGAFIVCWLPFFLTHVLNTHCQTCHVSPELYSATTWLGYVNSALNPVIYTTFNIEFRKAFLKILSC

Sequence of Matrix metalloproteinase-9 (P14780 whole entry): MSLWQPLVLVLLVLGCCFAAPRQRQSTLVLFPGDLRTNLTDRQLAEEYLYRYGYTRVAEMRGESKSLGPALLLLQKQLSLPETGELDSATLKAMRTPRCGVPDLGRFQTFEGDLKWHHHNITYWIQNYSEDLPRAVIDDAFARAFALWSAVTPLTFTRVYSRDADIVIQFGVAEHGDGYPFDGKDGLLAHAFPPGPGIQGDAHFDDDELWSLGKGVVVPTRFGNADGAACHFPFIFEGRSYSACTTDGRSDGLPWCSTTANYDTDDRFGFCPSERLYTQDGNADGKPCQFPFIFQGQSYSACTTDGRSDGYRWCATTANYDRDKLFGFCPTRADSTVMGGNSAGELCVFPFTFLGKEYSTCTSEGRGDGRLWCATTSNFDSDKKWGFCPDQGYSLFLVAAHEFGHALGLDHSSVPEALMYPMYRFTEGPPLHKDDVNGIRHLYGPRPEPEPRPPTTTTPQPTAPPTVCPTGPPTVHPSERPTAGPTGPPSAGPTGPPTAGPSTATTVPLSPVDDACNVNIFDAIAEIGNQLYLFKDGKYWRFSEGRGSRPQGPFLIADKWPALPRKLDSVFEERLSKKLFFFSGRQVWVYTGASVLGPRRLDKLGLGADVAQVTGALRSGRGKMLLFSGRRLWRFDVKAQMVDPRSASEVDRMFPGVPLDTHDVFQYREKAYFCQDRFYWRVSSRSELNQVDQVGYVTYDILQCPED

CC1(C)O[C@@H]2C[C@H]3[C@@H]4CCC5=CC(=O)C=C[C@]5(C)[C@@]4(F)[C@@H](O)C[C@]3(C)[C@]2(C(=O)CO)O1 [TRIAMCINOLONE ACETONIDE]
Not Active: IC50 [1] | IC50 [2] | IC50 [3] | Ki [3] | IC50 [4] | IC50 (Histamine H2 receptor) | IC50 (D(3) dopamine receptor)

NS(=O)(=O)c1cc2c(cc1Cl)NC(C(Cl)Cl)NS2(=O)=O (stereo unspecified) [TRICHLORMETHIAZIDE]
Not Active: IC50 [1] | IC50 [2] | IC50 [3] | Ki [3] | IC50 [4] | IC50 (Histamine H2 receptor) | IC50 (D(3) dopamine receptor)

Cc1c(C)c2c(c(C)c1O)CCC(C)(COc1ccc(CC3SC(=O)NC3=O)cc1)O2 (stereo unspecified) [TROGLITAZONE]
Not Active: IC50 [1] | IC50 [2] | IC50 [3] | Ki [3] | IC50 [4] | IC50 (Histamine H2 receptor) | IC50 (D(3) dopamine receptor)

N[C@@H]1[C@H]2CN(c3nc4c(cc3F)c(=O)c(C(=O)O)cn4-c3ccc(F)cc3F)C[C@@H]12 [TROVAFLOXACIN]
Not Active: IC50 [1] | IC50 [2] | IC50 [3] | Ki [3] | IC50 [4] | IC50 (Histamine H2 receptor) | IC50 (D(3) dopamine receptor)

N#CC(C#N)=Cc1ccc(O)c(O)c1 [TYRPHOSTIN 23]
Not Active: IC50 [1] | IC50 [2] | IC50 [3] | Ki [3] | IC50 [4] | IC50 (Histamine H2 receptor) | IC50 (D(3) dopamine receptor)

CC[C@]1(O)C[C@H]2CN(CCc3c([nH]c4ccccc34)[C@@](C(=O)OC)(c3cc4c(cc3OC)N(C=O)[C@H]3[C@@](O)(C(=O)OC)[C@H](OC(C)=O)[C@]5(CC)C=CCN6CC[C@]43[C@@H]65)C2)C1 [VINCRISTINE]
Not Active: IC50 [1] | IC50 [2] | IC50 [3] | Ki [3] | IC50 [4] | IC50 (Histamine H2 receptor) | IC50 (D(3) dopamine receptor)

CCCOc1ccccc1-c1nc2nn[nH]c2c(=O)[nH]1 [ZAPRINAST]
Not Active: IC50 [1] | IC50 [2] | IC50 [3] | Ki [3] | IC50 [4] | IC50 (Histamine H2 receptor) | IC50 (D(3) dopamine receptor)

SODIUM NITROPRUSSIDE
Not Active: IC50 [1] | Ki [1] | IC50 [2] | Ki [2] | IC50 [3] | Ki [3] | IC50 [4] | Ki [4] | IC50 (Histamine H2 receptor) | Ki (Histamine H2 receptor) | IC50 (D(3) dopamine receptor) | Ki (D(3) dopamine receptor)
